Measured values reported in US11718592B2, “Oxadiazole derivative” (Sumitomo Pharma Co., Ltd., priority 2020, dated 2023).
Where two headings read alike, the source gives them in different places.

Assays:
[1] = system: BALB/c-Scn1a<+/−> mice; assay: Anticonvulsant effect in mouse model of Dravet syndrome with febrile seizures; assay type: in vivo; settings: oral
Text: This is a test for evaluating the anticonvulsant effect for febrile seizures of the test compounds in a mouse model of Dravet syndrome. In this test, BALB/c-Scn1a<+/−> mice were used (catalog number: RBRC06422; they are available from RIKEN BioResource Research Center via the National BioResource Project). The present mouse model having a mutation in a responsible gene for Dravet syndrome, Scn1A, presents with symptoms similar to febrile seizures caused by hyperthermia which is a symptom in a patient suffering from Dravet syndrome, and can be used as an animal model of spontaneous Dravet syndrome (for reference: the Japan Epilepsy Research Foundation, Annual Report 2015: 26: 69-76). To male mice model of Dravet syndrome (one group: 5-8 mice, body weight: 20-30 g) were orally administered the test compound. 50 minutes later, the mice were put in a chamber warmed with hot bath to evoke hyperthermia, and observed about the development of febrile seizures. Immediately after febrile seizure was developed, the rectal temperature was measured and used as the threshold body temperature for inducing febrile seizures.

[2] = system: Slc: ddy male mice; settings: mouse, in vivo, po, 1 h
Method: The present test is a test for evaluating whether the test compound may disturb coordinated movement or not. Rotarod is an apparatus equipped with a rotating columnar bar whose diameter is 4 cm, in which a mouse is made to walk on the rotating bar, and the coordinated movement is evaluated from the result of walking (can walk or cannot walk). Slc: ddy male mice (purchased from Japan SLC, Inc., body weight: 20-30 g) were trained 3 hours before the test starts so that they could walk on a rotarod apparatus rotating with a speed of 12 rotations per minute for 5 minutes without falling. Only the mice which can walk in the training are used in the test. The test compound was orally administered to a group consisting of 5 mice. […] To control mice, 0.5% methylcellulose solution was administered as test compound, and the same test was also done. The coordinated movement was evaluated with the average of the five mice's walking time (second).

[3] = system: GABA(A) receptors; assay: Evaluation of the potentiating effect on GABA(A) receptors (electrophysiology, GABA(A) receptor expressing cells); assay type: cell-based
Method: Using GABA(A) receptor expressing cells prepared according to Guideline for Generation of Stable Cell Lines (website of Lonza Japan; Non-patent Literature 4), the present test is done for evaluating the potentiating effect of a drug on GABA(A) receptors based on the electric current raised by GABA. The GABA(A) receptor expressing cells were used in electrophysiological study, wherein the electric current was measured when 2 μM GABA solution and then a mixture of 2 μM GABA and the test compound were added to the cells. […] In addition, the electric current generated by a mixture of 2 μM GABA solution and the test compound with 10 μM flumazenil was measured, and the inhibition rate for the electric current by adding flumazenil was calculated compared to the electric current obtained in the absence of flumazenil.

[4] = system: ddY male mice; assay: Test with model produced by subcutaneous injection of pentetrazol (minimum convulsion model, scPTZ); assay type: in vivo; settings: 25 mg/kg oral administration
Method: In order to evaluate an antiepileptic drug, in general, a model produced by subcutaneous injection of pentetrazol (minimum convulsion model, scPTZ) is used, which has high clinical predictability. […] In this test, an animal model which expresses generalized absence seizure or myoclonic seizure was used. Test compounds were orally administered to Sic: ddY male mice (purchased from Japan SLC, Inc., 5 mice in each group, body weight 20-30 g). After an hour, pentetrazol (85 mg/kg) was subcutaneously administered. […] To control mice, 0.5% methylcellulose solution was administered, and the same test was done. The results are represented as the number of mice with no convulsion, per 5 mice. The present test was deemed to succeed when 4 mice among 5 mice in the control group developed convulsions.

With `CN1C(=O)CCC1c1nc(-c2ccc(F)cc2)no1` (stereo not shown) [Example 25, 5-[3-(4-Fluorophenyl)-1,2,4-oxadiazol-5-yl]-1-methylpyrrolidin-2-one] the “Difference of the threshold temperature of convulsion from that of the control group” value ([1]; at the dose for anticonvulsive effect, hyperthermia 50 minutes after dosing) was 0.3 °C, the “Dose for anticonvulsive effect” value ([1]; dose needed to raise the threshold body temperature for inducing febrile seizures significantly compared with the control group) was 12.5 mg/kg and the “average of the five mice's walking time” value ([2]; 25 mg/kg) was 180 s. The “average of the five mice's walking time” value ([2]; 50 mg/kg) was 144.8 s, the “Inhibition rate to the increased electric current by adding flumazenil” value ([3]; 2 μM GABA and test compound with 10 μM flumazenil) was 12% and the “The potentiating effect on GABA(A) receptors EC20” value ([3]; concentration giving 20% increase of the current generated by 2 μM GABA) was 16 µM. The “animals exhibiting anticonvulsant action (in words)” value [4] was “more than half of the animals”.
